Our source for the IC50 and inhibition values is patent publication US10968214B2, “KRas G12C inhibitors” (Eli Lilly and Company, priority 2018, dated 2021).

Like-named read-outs stand apart in the source and are kept apart here.

In one experiment the test system is SW1463. The experiment is described as follows: CellTiterGlo Cell Proliferation Assay, SW1463. Type of experiment: cell-based. Conditions: Homo sapiens, KRas G12C, colon, 96 hr, read-out: IC50 (μM) in 2 D cell proliferation. As for the experimental part:
A panel of tumor cell lines harboring KRas G12C or other KRas mutations are collected (Table 6). All cell lines are from ATCC or other sources indicated.
Typically cells are cultured in RPMI1640 or Dulbecco's modified Eagle's medium (DMEM, GIBCO) supplemented with 10% FBS (GIBCO, Invitrogen). For 2D culture cells (4×10^3/well) maintained in growth medium described above, are plated onto 96 well tissue culture plates Corning® Cat. 3603) a day before the treatment. For 3D culture 8000 cells/well are seeded onto 96 well ultra-low attachment tissue culture plates (Corning, #3474). The cells are treated compound for 96 hr, and then are analyzed for viability using the CellTiterGlo® Luminescent Cell Viability Assay® (Promega #G7572 for 2D and Promega #G9683 for 3D cultures) according to manufacturer's instructions and an EnVision™ plate reader. Nonlinear regression and sigmoidal dose-response curves are used to calculate the half maximal inhibitory concentration (IC50) with GraphPad Prism 4® software.
On the technique in general: Cellular ATP, detected with luciferase, serves as a proxy for viable cell number.

The subject of a further experiment is SW1573. The experiment is described as follows: Combination 4 day growth assay (Cell TiterGlo), SW1573. The format is cell-based. Conditions: Homo sapiens, 96 h, single treatment, read-out: Absolute IC50. As for the experimental part:
Cell lines for this study are obtained from ATCC and grown under ATCC recommended conditions, except for LXFA-983L, which is obtained from Oncotest/Charles Rivers Laboratories, Wilmington, Mass. and D122-96, which is obtained from L. Eisenbach (Weizman Institute of Science, Rehovot, Israel)—both grown under recommended conditions. […] The proliferation assay is performed as a 4 day growth assay using Cell TiterGlo® as the readout. Briefly, cells are plated in 96-well cell culture plates and allowed to adhere overnight at 37° C. The following day, cells are treated with compounds, either single treatments or combination treatments. First, the testing compounds are serially diluted in DMSO, followed by dilution into media as a 5× concentration with 1% DMSO, and finally added to cells in media to dilute to 1×. The cells are incubated at 37° C. for 4 more days. At the end of the incubation period, Cell TiterGlo® reagent is mixed and added to the wells. After 10 minutes, the luminescence is read by a Perkin Elmer Envision instrument. Absolute IC50 values generated by a 4-parameter logistics model for the single and combination treatments are generated, followed by combination indexes for each combination treatment and cell line. The combination IC50 values are adjusted based on the total concentration of each compound when added together. […] The combination index (CI) measures the degree to which the potency of a combination therapy differs from the expected-if-additive potency and is based on the Loewe definition of additivity.
[formula] Where • CAy and CBy are the concentrations of therapies A and B that produce an effect, y, when given in combination • ICAy and ICBy are the concentrations of A and B that produce an effect, y, when given individually The biological interpretation of the combination index is as follows: synergistic if the combination index <0.5, additive if the combination index is between 0.5 and 2, and antagonistic if the combination index is >2.

In experiment [1] the test system is pMEK in H2122 xenograft tumors. The experiment is described as follows: In vivo target inhibition/PD, H2122 xenograft, pMEK. Conditions: Mus musculus, NCI-H2122; for inhibition at 10 mg/kg: 10 mg/kg single dose. On the procedure: To evaluate in vivo target inhibition and anti-tumor efficacy of a compound, Human lung cancer cells, H358 or H2122 are implanted into nude mice xenograft tumor models. Either H358 or H2122 cells (10×10^6 in a 1:1 Matrigel® mix, 0.2 mL total volume) are implanted by subcutaneous injection in hind leg of nude female mice (Harlan Laboratories). A total of 5 mice each group are used for efficacy study, and a total of 3-4 mice each group are used for target engagement and PD study. Treatment is initiated with oral administration (gavage) of a test compound or vehicle (20% Captisol®, 25 mM phosphate, pH 2.0 in 0.2 mL volume when the tumor size reaches approximately […]. Tumor growth and body weight are monitored over time to evaluate efficacy and signs of toxicity. Bidimensional measurements of tumors are performed twice a week and tumor volumes are calculated based on mid-axis length and mid-axis width. Tumor volume data are transformed to a log scale to equalize variance across time and treatment groups. The log volume data are analyzed with a two-way repeated measures analysis of variance by time and treatment using the mixed procedures in SAS software (version 8.2). The correlation model for the repeated measures is spatial power. Treated groups are compared to the control group at each time point. The mixed procedure is also used separately for each treatment group to calculate adjusted means and standard errors at each time point. Both analyses account for the autocorrelation within each animal. The adjusted means and standard errors are plotted for each treatment group versus time.
For in vivo target inhibition and PD analysis, tumors are ground by mortar and pestle on dry ice and tumor fragments are added to 800 μL of lysis buffer containing 1% Triton X100, 25 mM Tris pH 7.5, 150 mM NaCl, 1 mM EDTA, and 1 mM EGTA with Halt protease and phosphatase inhibitor cocktail (Thermo Scientific, cat. no. 1861281) in lysing matrix D tubes (MP Biomedical®, cat. no. 6913-500) with one additional large bead (MP Biomedical® ¼″ ceramic sphere bead cat. no. 6540-412) per tube. Tumor fragments are homogenized in a Thermo Bio101® fast prep (FP120) at setting 4 for […] while cold for a total of 2 times. Lysates are spun at 14,000 rpm for 10 min at 4° C. to clarify. Protein estimation is done on the lysate supernatant using a BioRad Dc® protein assay and lysates are diluted in complete lysis/binding buffer from the Ras GTPase Chemi ELISA Kit® (Active Motif, cat. no. 52097). The active KRas ELISA was performed as follows: Glutathione-coated ELISA wells were incubated with diluted RAF1-GST in complete lysis/binding buffer for 1 hr at 4° C. with gentle agitation. Wells are washed 3 times with wash buffer and 100 μg of lysates are added to each well and incubated at RT for 1 hr with mild agitation. The wells are washed an additional 3 times, then primary antibody, diluted in antibody binding buffer, is added to each well. The plates are incubated for 1 hr. The wells are washed 3 more times before adding HRP-conjugated secondary antibody, diluted in antibody binding buffer, to each well. The plates are incubated at RT for 1 hr. ELISA wells are washed 4 times, chemiluminescent reagents is added and then luminescence is read. For pERK Meso Scale Discovery ELISA, 25 μg of protein containing 0.1% SDS is used; for pMEK Meso Scale Discovery ELISA, 50 μg of protein without SDS is used. Meso Scale Discovery Whole Cell Lysate Kits for pERK and pMEK are provided by Meso Scale Discovery.
After a single dose, the tumor samples are harvested at different time points. The tumor lysates are prepared as described above. The inhibition of pERK, pMEK, and active KRas is measured as described above.

With `C=CC(=O)N1CCN(c2ncnc3c(F)c(-c4ccc(F)c5sc(N)nc45)c(Cl)cc23)CC1` [Example 1, 1-{4-[7-(2-Amino-7-fluoro-1,3-benzothiazol-4-yl)-6-chloro-8-fluoroquinazolin-4-yl]piperazin-1-yl}prop-2-en-1-one], the IC50 with SW1463 is 0.013 µM; in the experiment on SW1573, over 10 µM. Also, the inhibition (usually the change of the read-out against control, counted positive when it falls) at 10 mg/kg is 45.9% in experiment [1] (H2122 xenograft, 2 hr, read-out: % Inhibition pMEK); 60.4% in experiment [1] (H2122 xenograft, 4 hr, read-out: % Inhibition pMEK); 25.7% in experiment [1] (H2122 xenograft, 8 hr, read-out: % Inhibition pMEK); -0.4% in experiment [1] (H2122 xenograft, 12 hr, read-out: % Inhibition pMEK); -8.4% in experiment [1] (H2122 xenograft, 24 hr, read-out: % Inhibition pMEK); 0 to 60% in experiment [1] (H2122 xenograft, from 2-12 hr, read-out: pMEK inhibition). Further, the inhibition at 30 mg/kg in experiment [1] (H2122 xenograft, 30 mg/kg single dose, 2 hr, read-out: % Inhibition pMEK) was 62.4%; in experiment [1] (H2122 xenograft, 30 mg/kg single dose, 4 hr, read-out: % Inhibition pMEK), 77.5%; in experiment [1] (H2122 xenograft, 30 mg/kg single dose, 8 hr, read-out: % Inhibition pMEK) it was 72.2%; in experiment [1] (H2122 xenograft, 30 mg/kg single dose, 12 hr, read-out: % Inhibition pMEK), 44.7%; in experiment [1] (H2122 xenograft, 30 mg/kg single dose, 24 hr, read-out: % Inhibition pMEK), -15.5%; in experiment [1] (read-out: pMEK inhibition), 45 to 78%. Besides, in experiment [1] (H2122 xenograft, 100 mg/kg single dose, 4 hr), the inhibition at 100 mg/kg was 79.7%.
